Patent publication US8735140B2, “Preservation and composition of bioprocess algae for production of lipids, seedstock, and feed” (Kuehnle AgroSystems, Inc., priority 2008, dated 2014)

Tested on: algae strains KAS503, KAS633 and KAS635
Experiment: Sorbitol treatment prior to alginate embedding, cell recovery after preservation
Type: cell-based
Method: In one specific embodiment, cells are treated with trehalose solution at various concentrations and left overnight. Cells are centrifuged the next day to remove the trehalose solution, and then re-suspended in sterile 0.5M D-sorbitol (Fisher Scientific […]) dissolved in salt or fresh-water medium as required by specific algae species. Cells are left to stand for 2 hours with mild agitation. After 2 hours, cells are centrifuged again to remove the 0.5M sorbitol solution and re-suspended in fresh or salt-water medium. Cells are counted after the re-suspension. Cell viability is determined by comparing the cell growth in control set with the experimental set. Specifically, cell counts are performed on all samples. The averaged density value (in cells per ml) for all the cultures after treatment is defined as “rejuvenation cell count.” In some samples, the percent recovery of cells immediately after storage is also determined. The formulae are illustrated as follows: Growth=(rejuvenation cell count)/(initial cell count) Cell recovery after storage=(cell density after storage)/(initial cell density), with controls set at 100% cell recovery. Viability after storage and rejuvenation in nutrient medium=(Growth of treatment)/(Growth of control)×100%, with controls set at 100% viability

`OC[C@@H](O)[C@@H](O)[C@H](O)[C@@H](O)CO` [sorbitol, D-sorbitol] was tested, and the “Cell recovery after preservation” value was “increases cell recovery”.
